Test results taken from PubChem BioAssay (NCI).
“And” between values parts separate entries of the source, which are not always exact repeats. Equal entries are not always repeated.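 Briefly, cells in 96-well plates were exposed to five compound concentrations for 48 h, and endpoints were estimated by linear interpolation. Here, GI50 denotes the concentration required for 50% inhibition of growth. TGI is the concentration that stops growth completely.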

Columns and labels:
Experiment in all cases: DTP human tumour cell line panel, 48 h
EKVX NSCLC = system: EKVX NSCLC
IGROV1 ovarian = system: IGROV1 ovarian
MOLT-4 leukemia = system: MOLT-4 leukemia
OVCAR-5 ovarian = system: OVCAR-5 ovarian
OVCAR-8 ovarian = system: OVCAR-8 ovarian
RPMI-8226 leukemia = system: RPMI-8226 leukemia
SF-268 CNS = system: SF-268 CNS
SK-MEL-5 melanoma = system: SK-MEL-5 melanoma
SN12C renal = system: SN12C renal
U251 CNS = system: U251 CNS

Row | Compound | TGI (EKVX NSCLC) | TGI (IGROV1 ovarian) | TGI (MOLT-4 leukemia) | TGI (OVCAR-5 ovarian) | TGI (OVCAR-8 ovarian) | TGI (RPMI-8226 leukemia) | TGI (SF-268 CNS) | TGI (SK-MEL-5 melanoma) | TGI (SN12C renal) | TGI (U251 CNS) | GI50 (EKVX NSCLC) | GI50 (OVCAR-5 ovarian) | GI50 (RPMI-8226 leukemia) | GI50 (IGROV1 ovarian) | GI50 (MOLT-4 leukemia) | GI50 (SK-MEL-5 melanoma) | GI50 (U251 CNS) | GI50 (OVCAR-8 ovarian) | GI50 (SF-268 CNS) | GI50 (SN12C renal)
1 | COC(=O)C1=CSC2(S1)C(C(=O)OC)=CSc1c2ssc1=Nc1ccccc1 (stereo unspecified) | > 100 µM | 4.83 µM | 3.55 µM | 17.7 µM | 6.23 µM | 2.87 µM | > 100 µM | 9.07 µM | 4.3 µM | 10.1 µM | – | – | – | – | – | – | – | – | – | –
2 | CC(=O)C(O)N1C(=O)C=CC1=O (stereo unspecified) | 25 µM and 33.5 µM and 12.3 µM | – | – | – | – | 35 µM and 5.64 µM | 17.9 µM and 51.8 µM | – | – | – | 21.2 µM and 18.7 µM | 10500 µM | 12.8 µM | – | – | – | – | – | – | –
3 | CCCCCCNC(=O)c1cnc(Cl)cn1 | 20.7 µM | 22.8 µM | 23.2 µM | 32.5 µM | 34.5 µM | > 100 µM | 31.4 µM | 30.4 µM | 26 µM | 23.6 µM | – | – | – | – | – | – | – | – | – | –
4 | COc1ccc(N2C(=O)C3c4[nH]c5c(C)cccc5c4C4CCC(C(C)(C)C)CC4C3C2=O)cc1 (stereo unspecified) | > 10 µM | > 10 µM | > 10 µM | > 10 µM | > 10 µM | > 10 µM | > 10 µM | > 10 µM | > 10 µM | > 10 µM | – | – | – | – | – | – | – | – | – | –
5 | NC(=O)CCCC(NCc1c2ccccc2nc2ccccc12)C(=O)O (stereo unspecified) | > 100 µM | > 100 µM | 66.2 µM | > 100 µM | > 100 µM | 93.6 µM | > 100 µM | > 100 µM | > 100 µM | > 100 µM | – | – | – | – | – | – | – | – | – | –
6 | COc1ccc([C@@H]2ON(C)[C@H]3CN(C)C(=O)[C@@H]23)cc1 | – | > 100 µM | > 100 µM | > 100 µM | > 100 µM | > 100 µM | – | > 100 µM | > 100 µM | > 100 µM | – | – | – | – | – | – | – | – | – | –
7 | CN1CCCCC1CCN1CCCCC1 (stereo unspecified) | > 100 µM | > 100 µM | > 100 µM | > 100 µM | > 100 µM | > 100 µM | > 100 µM | > 100 µM | > 100 µM | > 100 µM | – | – | – | – | – | – | – | – | – | –
8 | Cc1ccccc1N=Nc1ccc(N=Nc2c(O)ccc3ccccc23)c(C)c1 | > 100 µM | > 100 µM | > 100 µM | > 100 µM | > 100 µM | > 100 µM | > 100 µM | > 100 µM | > 100 µM | > 100 µM | – | – | – | – | – | – | – | – | – | –
9 | CCCCCCCSc1nc2c(C(=O)OCC)ncn2c2ccccc12 | > 100 µM | > 100 µM | > 100 µM | > 100 µM | > 100 µM | > 100 µM | > 100 µM | – | > 100 µM | > 100 µM | – | – | – | – | – | – | – | – | – | –
10 | CC1C(O)C2(Oc3cc4c(c5c3[C@@H](CC5O)[C@H]2C)CCC2Cc3nc5c(nc3C[C@@]42C)CC2CCC3C4=C[C@H]6O[C@@]7(O[C@@](C)(CO)C[C@@H]7O)C(C)[C@@]6(O)[C@]4(C)[C@@H](O)CC3[C@]2(C)C5)OC1(C)C (stereo partly specified) | > 3.67 µM | 0.894 µM | – | 1.32 µM | 1.36 µM | > 3.67 µM | 0.641 µM | > 3.67 µM | > 3.67 µM | 0.114 µM | – | – | – | – | – | – | – | – | – | –
11 | Cc1cc(NCc2cc(Nc3ccnc4cc(Cl)ccc34)ccc2F)nc(N2CCCC2)n1 | 11.1 µM | 4.2 µM | 14.3 µM | – | – | – | – | 3.19 µM | – | 3.32 µM | 2.43 µM | – | – | 1.69 µM | 1.95 µM | 1.76 µM | 1.73 µM | – | – | –
12 | O=C1c2c(c3c4ccccc4[nH]c3c3ccc4ccccc4c23)C(=O)N1CCN1CCCCC1 | > 100 µM | 4.29 µM | 5.35 µM | 3.49 µM | 4.48 µM | 4.7 µM | > 100 µM | 3.1 µM | 1.73 µM | 7.51 µM | 13.4 µM | 1.52 µM | 1.78 µM | 1.25 µM | 0.354 µM | 1.51 µM | 1.05 µM | 1.27 µM | 1.15 µM | 0.447 µM
13 | Cc1ccc(S(=O)(=O)NCCSCCNS(=O)(=O)c2ccc(C)cc2)cc1 | – | – | > 100 µM | – | > 100 µM | – | > 100 µM | > 100 µM | > 100 µM | > 100 µM | – | – | – | – | – | – | – | – | – | –
14 | NC(=O)NN=C(CS)CS | 33.7 µM | > 100 µM | 65.8 µM | 55.7 µM | 77.3 µM | > 100 µM | > 79.9 µM | 32.8 µM | 55 µM | 43.6 µM | – | – | – | – | – | – | – | – | – | –
15 | Cc1sc(Cc2ccccc2)nc1-c1ccc(N)cc1 | > 100 µM | 89.8 µM | 51.1 µM | > 100 µM | > 100 µM | 71.4 µM | > 100 µM | 35.6 µM | 40.2 µM | 74.7 µM | – | – | – | – | – | – | – | – | – | –
16 | Cc1c2cc[n+](CCN3CCCCC3)cc2c(C)c2c1[nH]c1ccc(O)cc12 | 24.6 µM and 51.5 µM | 38.1 µM and 30.4 µM | 8.96 µM and 5.96 µM | 62.4 µM and > 77.3 µM | 30.6 µM and 44.7 µM | 23.3 µM and 11.6 µM | 29.6 µM and 25.7 µM | 31.2 µM and 11.1 µM | 20.8 µM and 6.03 µM | 10.6 µM and 10.4 µM | 7.83 µM | 25.2 µM | 1.74 µM | 4.43 µM | 0.267 µM and 0.0385 µM | – | 1.7 µM | 3.36 µM | 2.29 µM | 0.16 µM
17 | CN(C)c1ccc(/C=N\NC(=O)CSCC(=O)N/N=C/c2ccc(N(C)C)cc2)cc1 | > 100 µM | > 100 µM | > 100 µM | > 100 µM | > 100 µM | > 100 µM | > 100 µM | > 100 µM | > 100 µM | > 100 µM | – | – | – | – | – | – | – | – | – | –
18 | O=c1ccc2cc(O)c(O)cc2o1 | > 100 µM | > 100 µM | > 100 µM | > 100 µM | > 100 µM | > 100 µM | > 100 µM | > 100 µM | > 100 µM | > 100 µM | – | – | – | – | – | – | – | – | – | –
19 | CN(C)CCNc1nc(-c2ccc3ccccc3c2)nc2nc[nH]c12 | 19.8 µM | 15.4 µM | 18.6 µM | 26 µM | 24.4 µM | > 100 µM | 25.1 µM | 25 µM | 26.3 µM | 31 µM | – | – | – | – | – | – | – | – | – | –
20 | C[C@@H]1CC[C@H]2C(COCCOCC3=C(C(F)(F)F)O[C@@H]4O[C@@]5(C)CC[C@H]6[C@H](C)CC[C@@H]3[C@@]46OO5)=C(C(F)(F)F)O[C@@H]3O[C@@]4(C)CC[C@@H]1[C@]32OO4 | > 100 µM | > 100 µM | > 100 µM | > 20 µM | > 100 µM | – | > 100 µM | > 100 µM | > 100 µM | 0.178 µM | 0.795 µM | > 4.64 µM | < 0.0139 µM | > 21.1 µM | < 0.0349 µM | 0.176 µM | < 0.01 µM | < 0.0261 µM | 0.0602 µM | < 0.0448 µM
21 | NC(N)=N/N=C/c1c(-c2ccccc2)nc2n1ccc1nc(-c3ccccc3)c(/C=N/N=C(N)N)n12 | 65.7 µM | 92.7 µM | > 100 µM | > 100 µM | > 100 µM | > 100 µM | > 100 µM | > 100 µM | > 100 µM | > 100 µM | – | – | – | – | – | – | – | – | – | –
22 | CC1=NN(c2ccccc2)C(=O)/C1=C/c1ccc(O)cc1 | > 100 µM | > 100 µM | > 100 µM | > 100 µM | > 100 µM | > 100 µM | > 100 µM | > 100 µM | > 100 µM | > 100 µM | – | – | – | – | – | – | – | – | – | –
23 | CC1=C2C(=O)c3ccccc3C(=O)[C@H]2[C@H]2CCO[C@H]2O1 | 91.6 µM | 31.1 µM | > 100 µM | 49.2 µM | 45.2 µM | 70.4 µM | 35.1 µM | 30.8 µM | 40.4 µM | 59.3 µM | – | – | – | – | – | – | – | – | – | –
24 | C/C=C/[P+](c1ccccc1)(c1ccccc1)c1ccccc1 | 13.5 µM | 18.1 µM | 19.6 µM | 33.2 µM | 17.3 µM | 0.898 µM | 17.1 µM | 9.54 µM | 16.5 µM | 15.1 µM | – | – | – | – | – | – | – | – | – | –
25 | Cc1ccc(Oc2ccc(C)cc2[N+](=O)[O-])cc1 | > 100 µM | > 100 µM | > 100 µM | > 100 µM | > 100 µM | > 100 µM | > 100 µM | 92.6 µM | > 100 µM | > 100 µM | – | – | – | – | – | – | – | – | – | –
